Reference: patent publication US6852673B2, “Herbicidal pyridine compounds” (BASF Aktiengesellschaft, priority 1998, dated 2005)

Tests used:
Format in all cases: in vivo
Glycine max (GLXMA) = test: Pre-emergence herbicidal evaluation, soyabeans
Description: (§1) The pre-emergence herbicidal activity of the compounds of the present invention is exemplified by the following test in which the seeds of a variety of monocotyledonous and dicotyledonous plants are seperately mixed with potting soil and planted on top of approximately one inch of soil in separate pots. After planting, the pots are sprayed with the selected aqueous acetone solution containing test compound in sufficient quantity to provide the equivalent of about 0.0125 to 0.4 kg per hectare of test compound per pot. The treated pots are then placed on greenhouse benches, watered and cared for in accordance with conventional greenhouse procedures. From 2 to 4 weeks after treatment, the tests are terminated and each pot is examined and rated according to the rating system set forth below.

Hordeum vulgare (HORVW) = test: Pre-emergence herbicidal evaluation, winter barley
Description: as §1

Oryza sativum (ORYSA) = test: Pre-emergence herbicidal evaluation, rice
Description: as §1

[1] = tested on: Triticum aestivum (TRZAW); test: Pre-emergence herbicidal evaluation, winter wheat
Description: as §1

Zea mays (ZEAMX) = test: Pre-emergence herbicidal evaluation, maize
Description: as §1

[2] = tested on: Abutilon theophrasti (ABUTH); test: Pre-emergence herbicidal evaluation, velvetleaf
Description: as §1

[3] = tested on: Ambrosia artemiisifolia (AMBEL); test: Pre-emergence herbicidal evaluation, ragweed
Description: as §1

Galium aparine (GALAP) = test: Pre-emergence herbicidal evaluation, cleaver
Description: as §1

[4] = tested on: Ipomoea hederacea (IPOHE); test: Pre-emergence herbicidal evaluation, morning glory
Description: as §1

Lamium purpureum (LAMPU) = test: Pre-emergence herbicidal evaluation, purple deadnettle
Description: as §1

[5] = tested on: Matricaria inodora (MATIN); test: Pre-emergence herbicidal evaluation, mayweed
Description: as §1

Solanum nigrum (SOLNI) = test: Pre-emergence herbicidal evaluation, black nightshade
Description: as §1

Stellaria media (STEME) = test: Pre-emergence herbicidal evaluation, chickweed
Description: as §1

[6] = tested on: Alopecurus myosuroides (ALOMY); test: Pre-emergence herbicidal evaluation, black grass
Description: as §1

[7] = tested on: Digitaria sanguinalis (DIGSA); test: Pre-emergence herbicidal evaluation, large crabgrass
Description: as §1

Cc1cc(OCC(F)(F)C(F)(F)F)nc(Oc2cc(C(F)(F)F)nn2C)c1 [Example 7]
selectivity in soybeans (Glycine max (GLXMA)): quite selective
GLXMA rating (Glycine max (GLXMA); dose 0.013 kg/ha): 0 (0 - No effect)
GLXMA rating (Glycine max (GLXMA); dose 0.025 kg/ha): 0 (0 - No effect)
GLXMA rating (Glycine max (GLXMA); dose 0.1 kg/ha): 2 (2 - Slight effect)
GLXMA rating (Glycine max (GLXMA); dose 0.4 kg/ha): 3 (3 - Moderate effect)
HORVW rating (Hordeum vulgare (HORVW); dose 0.013 kg/ha): 0 (0 - No effect)
HORVW rating (Hordeum vulgare (HORVW); dose 0.025 kg/ha): 0 (0 - No effect)
HORVW rating (Hordeum vulgare (HORVW); dose 0.1 kg/ha): 2 (2 - Slight effect)
HORVW rating (Hordeum vulgare (HORVW); dose 0.4 kg/ha): 3 (3 - Moderate effect)
ORYSA rating (Oryza sativum (ORYSA); dose 0.013 kg/ha): 0 (0 - No effect)
ORYSA rating (Oryza sativum (ORYSA); dose 0.025 kg/ha): 1 (1 - Trace effect)
ORYSA rating (Oryza sativum (ORYSA); dose 0.1 kg/ha): 1 (1 - Trace effect)
ORYSA rating (Oryza sativum (ORYSA); dose 0.4 kg/ha): 2 (2 - Slight effect)
TRZAW rating ([1]; dose 0.013 kg/ha): 0 (0 - No effect)
TRZAW rating ([1]; dose 0.025 kg/ha): 0 (0 - No effect)
TRZAW rating ([1]; dose 0.1 kg/ha): 1 (1 - Trace effect)
TRZAW rating ([1]; dose 0.4 kg/ha): 2 (2 - Slight effect)
selectivity in maize (Zea mays (ZEAMX)): good selectivity
ZEAMX rating (Zea mays (ZEAMX); dose 0.013 kg/ha): 0 (0 - No effect)
ZEAMX rating (Zea mays (ZEAMX); dose 0.025 kg/ha): 0 (0 - No effect)
ZEAMX rating (Zea mays (ZEAMX); dose 0.1 kg/ha): 0 (0 - No effect)
ZEAMX rating (Zea mays (ZEAMX); dose 0.4 kg/ha): 2 (2 - Slight effect)
ABUTH rating ([2]; dose 0.025 kg/ha): 0 (0 - No effect)
ABUTH rating ([2]; dose 0.1 kg/ha): 1 (1 - Trace effect)
ABUTH rating ([2]; dose 0.4 kg/ha): 7 (7 - Good herbicidal effect)
AMBEL rating ([3]; dose 0.025 kg/ha): 1 (1 - Trace effect)
AMBEL rating ([3]; dose 0.1 kg/ha): 6 (6 - Herbicidal effect)
AMBEL rating ([3]; dose 0.4 kg/ha): 9 (9 - Complete kill)
GALAP rating (Galium aparine (GALAP); dose 0.013 kg/ha): 0 (0 - No effect)
GALAP rating (Galium aparine (GALAP); dose 0.025 kg/ha): 0 (0 - No effect)
GALAP rating (Galium aparine (GALAP); dose 0.1 kg/ha): 1 (1 - Trace effect)
GALAP rating (Galium aparine (GALAP); dose 0.4 kg/ha): 2 (2 - Slight effect)
IPOHE rating ([4]; dose 0.025 kg/ha): 1 (1 - Trace effect)
IPOHE rating ([4]; dose 0.1 kg/ha): 2 (2 - Slight effect)
IPOHE rating ([4]; dose 0.4 kg/ha): 5 (5 - Definite injury)
LAMPU rating (Lamium purpureum (LAMPU); dose 0.025 kg/ha): 6 (6 - Herbicidal effect)
LAMPU rating (Lamium purpureum (LAMPU); dose 0.1 kg/ha): 8 (8 - Approaching complete kill)
LAMPU rating (Lamium purpureum (LAMPU); dose 0.4 kg/ha): 9 (9 - Complete kill)
MATIN rating ([5]; dose 0.013 kg/ha): 0 (0 - No effect)
MATIN rating ([5]; dose 0.025 kg/ha): 3 (3 - Moderate effect)
MATIN rating ([5]; dose 0.1 kg/ha): 8 (8 - Approaching complete kill)
MATIN rating ([5]; dose 0.4 kg/ha): 9 (9 - Complete kill)
SOLNI rating (Solanum nigrum (SOLNI); dose 0.013 kg/ha): 0 (0 - No effect)
SOLNI rating (Solanum nigrum (SOLNI); dose 0.025 kg/ha): 1 (1 - Trace effect)
SOLNI rating (Solanum nigrum (SOLNI); dose 0.1 kg/ha): 4 (4 - Injury)
SOLNI rating (Solanum nigrum (SOLNI); dose 0.4 kg/ha): 9 (9 - Complete kill)
STEME rating (Stellaria media (STEME); dose 0.025 kg/ha): 5 (5 - Definite injury)
STEME rating (Stellaria media (STEME); dose 0.1 kg/ha): 7 (7 - Good herbicidal effect)
STEME rating (Stellaria media (STEME); dose 0.4 kg/ha): 8 (8 - Approaching complete kill)
ALOMY rating ([6]; dose 0.013 kg/ha): 0 (0 - No effect)
ALOMY rating ([6]; dose 0.025 kg/ha): 1 (1 - Trace effect)
ALOMY rating ([6]; dose 0.1 kg/ha): 4 (4 - Injury)
ALOMY rating ([6]; dose 0.4 kg/ha): 9 (9 - Complete kill)
DIGSA rating ([7]; dose 0.013 kg/ha): 0 (0 - No effect)
DIGSA rating ([7]; dose 0.025 kg/ha): 1 (1 - Trace effect)
DIGSA rating ([7]; dose 0.1 kg/ha): 6 (6 - Herbicidal effect)
DIGSA rating ([7]; dose 0.4 kg/ha): 8 (8 - Approaching complete kill)
